The text below walks through data of DBAASP.

≈ marks a conversion by molar mass, not a printed value. Some results are limits rather than exact numbers.

Some test systems named below: Botrytis cinerea; Escherichia coli DC2; Escherichia coli UB1005; Escherichia coli BW25113.
What all share (assay): ≥ marks a high value that may be exact or a test limit, other limits are often not marked, values filed in µg/mL are converted to µM
Assay [1] has as its system Staphylococcus aureus ATCC 12600.
In assay [2] the test system is Candida albicans ATCC 10231.
Assay [3] concerns Escherichia coli ATCC 11775.
Assay [4] has as its system Pseudomonas aeruginosa Ps4.
Assay [5] concerns Micrococcus luteus ATCC 9341.
Assay [6] deals with Staphylococcus epidermidis C621.
For assay [7], the system named is Corynebacterium xerosis C875.
The subject of assay [8] is Escherichia coli ATCC 25922.
Assay [9] relates to Pseudomonas aeruginosa ATCC 27853.
Assay [10] concerns Staphylococcus aureus ATCC 25923.
The subject of assay [11] is Bacillus subtilis ATCC 6633.
The test system of assay [12] is Enterococcus faecalis ATCC 29212.
Assay [13] relates to Escherichia coli NCTC 10418.

In the case of `CC(C)C[C@H](NC(=O)[C@H](C)NC(=O)[C@H](CO)NC(=O)[C@@H](NC(=O)[C@@H](NC(=O)[C@H](CO)NC(=O)[C@H](CCCCN)NC(=O)[C@@H](NC(=O)[C@H](CC(C)C)NC(=O)CNC(=O)[C@H](CC(C)C)NC(=O)[C@H](CC(C)C)NC(=O)[C@H](CC(=O)O)NC(=O)[C@@H](N)Cc1ccccc1)C(C)C)C(C)C)C(C)C)C(N)=O` [FDLLGLVKSVVSAL], the MIC (usually the lowest concentration found to suppress growth) in assay [1] was 25 µM (≈ 36.5 µg/mL); in [2], 100 µM (≈ 146 µg/mL); in assay [3], no less than 200 µM; against Botrytis cinerea it was 5 µM (≈ 7.3 µg/mL).

For `CC[C@H](C)[C@H](NC(=O)[C@H](CC(N)=O)NC(=O)[C@H](CCCN=C(N)N)NC(=O)[C@H](CC(C)C)NC(=O)[C@H](Cc1c[nH]c2ccccc12)NC(=O)[C@@H](N)Cc1ccccc1)C(=O)N[C@@H](CCCN=C(N)N)C(=O)N[C@@H](CCCCN)C(=O)N[C@H](C(=O)N[C@@H](CCCN=C(N)N)C(N)=O)C(C)C` [FWLRNIRKVR], the MIC in assay [4] is no less than 180 µM.

`CC[C@H](C)[C@H](NC(=O)[C@H](CCCN=C(N)N)NC(=O)[C@@H](NC(=O)[C@H](CCCN=C(N)N)NC(=O)[C@H](CCC(N)=O)NC(=O)[C@H](Cc1c[nH]c2ccccc12)NC(=O)[C@@H](N)Cc1ccccc1)[C@@H](C)CC)C(=O)N[C@@H](CCCN=C(N)N)C(=O)N[C@@H](CCCN=C(N)N)C(N)=O` [FWQRIRIRR]: the MIC in assay [4] is no less than 188 µM.

Consider `CC[C@H](C)[C@H](NC(=O)[C@H](CC(N)=O)NC(=O)[C@H](CCCN=C(N)N)NC(=O)[C@H](CCC(N)=O)NC(=O)[C@H](Cc1c[nH]c2ccccc12)NC(=O)[C@@H](N)Cc1ccccc1)C(=O)N[C@@H](CCCN=C(N)N)C(=O)N[C@@H](CCCCN)C(=O)N[C@H](C(=O)N[C@@H](CO)C(N)=O)C(C)C` [FWQRNIRKVS], for which, in assay [4], the MIC is no less than 187 µM.

The molecule `CC[C@H](C)[C@H](NC(=O)[C@H](CCCN=C(N)N)NC(=O)[C@H](Cc1c[nH]c2ccccc12)NC(=O)[C@H](CC(N)=O)NC(=O)[C@H](CCCN=C(N)N)NC(=O)[C@H](CCC(N)=O)NC(=O)[C@H](Cc1c[nH]c2ccccc12)NC(=O)[C@@H](N)Cc1ccccc1)C(=O)N[C@@H](CCCN=C(N)N)C(=O)N[C@@H](CCCN=C(N)N)C(N)=O` [FWQRNWRIRR] had an MIC in assay [4] of no less than 165 µM.

In assay [5], `CC[C@H](C)[C@H](N)C(=O)N[C@@H](C)C(=O)N1CCC[C@H]1C(=O)N[C@@H](Cc1c[nH]c2ccccc12)C(=O)N[C@@H](CCCCN)C(=O)N[C@@H](Cc1c[nH]c2ccccc12)C(=O)N1CCC[C@H]1C(=O)N[C@@H](Cc1c[nH]c2ccccc12)C(=O)N[C@@H](Cc1c[nH]c2ccccc12)C(=O)N1CCC[C@H]1C(=O)N[C@@H](Cc1c[nH]c2ccccc12)C(=O)N[C@@H](CCCN=C(N)N)C(=O)N[C@@H](CCCN=C(N)N)C(N)=O` [IAPWKWPWWPWRR] gave an MIC of 0.4 µM (≈ 0.746 µg/mL).

`C[C@H](NC(=O)[C@H](C)NC(=O)[C@H](C)NC(=O)[C@H](CS)NC(=O)[C@H](C)NC(=O)[C@H](C)NC(=O)[C@H](C)NC(=O)[C@H](CCCCN)NC(=O)[C@@H](N)CCCCN)C(=O)N[C@@H](C)C(=O)N[C@@H](C)C(=O)N[C@@H](CS)C(=O)N[C@@H](C)C(=O)N[C@@H](C)C(=O)N[C@@H](Cc1c[nH]c2ccccc12)C(=O)N[C@@H](C)C(=O)N[C@@H](C)C(=O)N[C@@H](CS)C(=O)N[C@@H](C)C(=O)N[C@@H](C)C(=O)N[C@@H](C)C(=O)N[C@@H](CCCCN)C(=O)N[C@@H](CCCCN)C(=O)N[C@@H](CCCCN)C(=O)N[C@@H](CCCCN)C(N)=O` [KKAAACAAAAACAAWAACAAAKKKK]: the MIC in [6] is no less than 32 µM; in [7] it was 1 µM (≈ 2.35 µg/mL); against Escherichia coli DC2, 8 µM (≈ 18.8 µg/mL); in the assay on Escherichia coli UB1005, 16 µM (≈ 37.6 µg/mL).

For `C[C@H](NC(=O)[C@H](C)NC(=O)[C@H](C)NC(=O)[C@H](Cc1ccccc1)NC(=O)[C@H](C)NC(=O)[C@H](C)NC(=O)[C@H](C)NC(=O)[C@H](CCCCN)NC(=O)[C@@H](N)CCCCN)C(=O)N[C@@H](C)C(=O)N[C@@H](C)C(=O)N[C@@H](Cc1ccccc1)C(=O)N[C@@H](C)C(=O)N[C@@H](C)C(=O)N[C@@H](Cc1c[nH]c2ccccc12)C(=O)N[C@@H](C)C(=O)N[C@@H](C)C(=O)N[C@@H](Cc1ccccc1)C(=O)N[C@@H](C)C(=O)N[C@@H](C)C(=O)N[C@@H](C)C(=O)N[C@@H](CCCCN)C(=O)N[C@@H](CCCCN)C(=O)N[C@@H](CCCCN)C(=O)N[C@@H](CCCCN)C(N)=O` [KKAAAFAAAAAFAAWAAFAAAKKKK], the minimum inhibitory concentration (MIC) in assay [6] is 2 µM (≈ 4.96 µg/mL); in [8], greater than 32 µM; in assay [7], 0.25 µM (≈ 0.62 µg/mL); in [9], 8 µM (≈ 19.8 µg/mL); with Escherichia coli DC2, 4 µM (≈ 9.92 µg/mL); in assay [10], greater than 32 µM. Also, the MIC in assay [11] is 1 µM (≈ 2.48 µg/mL); against Escherichia coli UB1005 it was 16 µM (≈ 39.7 µg/mL); in assay [12], greater than 32 µM.

Turning to `C[C@H](NC(=O)[C@H](C)NC(=O)[C@H](C)NC(=O)[C@H](Cc1ccccc1)NC(=O)[C@H](C)NC(=O)[C@H](CCCCN)NC(=O)[C@@H](N)CCCCN)C(=O)N[C@@H](C)C(=O)N[C@@H](C)C(=O)N[C@@H](Cc1ccccc1)C(=O)N[C@@H](C)C(=O)N[C@@H](C)C(=O)N[C@@H](Cc1c[nH]c2ccccc12)C(=O)N[C@@H](C)C(=O)N[C@@H](C)C(=O)N[C@@H](Cc1ccccc1)C(=O)N[C@@H](C)C(=O)N[C@@H](CCCCN)C(=O)N[C@@H](CCCCN)C(=O)N[C@@H](CCCCN)C(=O)N[C@@H](CCCCN)C(N)=O` [KKAFAAAAAFAAWAAFAKKKK], the MIC in [6] is 8 µM (≈ 17.6 µg/mL); in assay [8] it was 32 µM (≈ 70.3 µg/mL); in assay [7], 0.5 µM (≈ 1.1 µg/mL); in [9] it was greater than 32 µM; in the assay with Escherichia coli DC2, 4 µM (≈ 8.78 µg/mL); in [10], greater than 32 µM. Also, the minimum inhibitory concentration (MIC) in assay [11] was 2 µM (≈ 4.39 µg/mL); in the assay with Escherichia coli UB1005, 8 µM (≈ 17.6 µg/mL); in assay [12], greater than 32 µM.

Regarding `C[C@H](NC(=O)[C@H](C)NC(=O)[C@H](C)NC(=O)[C@H](Cc1ccccc1)NC(=O)[C@H](C)NC(=O)[C@H](C)NC(=O)[C@H](Cc1c[nH]c2ccccc12)NC(=O)[C@H](C)NC(=O)[C@H](C)NC(=O)[C@H](Cc1ccccc1)NC(=O)[C@H](C)NC(=O)[C@H](C)NC(=O)[C@H](C)NC(=O)[C@H](C)NC(=O)[C@H](C)NC(=O)[C@H](Cc1ccccc1)NC(=O)[C@H](C)NC(=O)[C@H](C)NC(=O)[C@H](C)NC(=O)[C@H](CCCCN)NC(=O)[C@H](CCCCN)NC(=O)[C@H](CCCCN)NC(=O)[C@H](CCCCN)NC(=O)[C@H](CCCCN)NC(=O)[C@@H](N)CCCCN)C(N)=O` [KKKKKKAAAFAAAAAFAAWAAFAAA], the MIC in assay [6] stood at 4 µM (≈ 9.92 µg/mL); in [8] it was 16 µM (≈ 39.7 µg/mL); in assay [7], 1 µM (≈ 2.48 µg/mL); in assay [9], 32 µM (≈ 79.4 µg/mL); against Escherichia coli DC2 it was 8 µM (≈ 19.8 µg/mL); in the assay with Escherichia coli UB1005, 16 µM (≈ 39.7 µg/mL).

Regarding `CC[C@H](C)[C@@H]1NC(=O)[C@H](CC(C)C)NC(=O)[C@@H](NC(=O)[C@H](Cc2ccccc2)NC(=O)[C@H](CC(C)C)NC(=O)[C@H](CCCCN)NC(=O)[C@@H]2CCCN2C(=O)[C@H](CC(C)C)NC(=O)[C@H](C)NC(=O)[C@H](C)NC(=O)[C@H](CC(C)C)NC(=O)[C@H](C)NC(=O)[C@H](CC(C)C)NC(=O)[C@H](CO)NC(=O)[C@H](CC(C)C)NC(=O)[C@@H](N)CC(C)C)CSSC[C@@H](C(=O)O)NC(=O)[C@H](CCCCN)NC(=O)[C@H](CCCCN)NC(=O)[C@H](Cc2ccccc2)NC1=O` [LLSLALAALPKLFCLIFKKC], the MIC in [1] was 12.5 µM (≈ 27.5 µg/mL); in assay [3], 25 µM (≈ 55.1 µg/mL).

Regarding `CSCC[C@H](NC(=O)[C@H](C)NC(=O)[C@H](C)NC(=O)[C@@H]1CCCN1C(=O)[C@H](CO)NC(=O)[C@@H](N)CC(C)C)C(=O)N[C@@H](C)C(=O)N[C@@H](CO)C(=O)N[C@@H](CC(C)C)C(=O)N[C@@H](C)C(N)=O` [LSPAAMASLA], the MIC in [1] is no less than 200 µM; in [2], greater than 200 µM; in assay [3], no less than 200 µM; in the assay on Botrytis cinerea it was no less than 200 µM.

In the assay on Escherichia coli BW25113, `CC(C)C[C@H](NC(=O)[C@H](Cc1ccc(O)cc1)NC(=O)[C@@H]1CCCN1)C(=O)N1CCC[C@H]1C(=O)N[C@@H](CCCN=C(N)N)C(=O)N1CCC[C@H]1C(=O)NCC(=O)N[C@@H](CCCN=C(N)N)C(=O)N[C@@H](CCCN=C(N)N)C(=O)N1CCC[C@H]1C(=O)N[C@@H](CCCN=C(N)N)C(=O)N[C@@H](Cc1ccccc1)C(=O)N1CCC[C@H]1C(=O)N1CCC[C@H]1C(=O)N1CCC[C@H]1C(=O)N[C@@H](Cc1ccccc1)C(=O)N1CCC[C@H]1C(=O)O` [PYLPRPGRRPRFPPPFP] gave an MIC of no less than 64 µM.

`CSCC[C@H](NC(=O)[C@H](Cc1c[nH]c2ccccc12)NC(=O)[C@@H]1CCCN1C(=O)[C@@H]1CCCN1C(=O)[C@H](Cc1ccccc1)NC(=O)[C@@H](NC(=O)[C@H](Cc1cnc[nH]1)NC(=O)[C@H](Cc1ccccc1)NC(=O)[C@@H](N)CO)C(C)C)C(=O)N[C@H]1CSSC[C@@H](C(=O)O)NC(=O)[C@H](CCCCN)NC(=O)[C@H](CCCCN)NC(=O)[C@H](CC(C)C)NC(=O)[C@H](CO)NC(=O)[C@H](CCCCN)NC1=O` [SFHVFPPWMCKSLKKC] returned an MIC in assay [13] of no less than 70 µM.
